These results are taken from ChEMBL document CHEMBL1132823, “Fatty acid amide hydrolase substrate specificity” (Bioorg Med Chem Lett, 2000).

The structures appear in SMILES notation. Some results are limits rather than exact numbers.

The target in this assay is T1, Fatty-acid amide hydrolase 1 (Rattus norvegicus) (UniProt P97612).
T1 sequence (whole entry): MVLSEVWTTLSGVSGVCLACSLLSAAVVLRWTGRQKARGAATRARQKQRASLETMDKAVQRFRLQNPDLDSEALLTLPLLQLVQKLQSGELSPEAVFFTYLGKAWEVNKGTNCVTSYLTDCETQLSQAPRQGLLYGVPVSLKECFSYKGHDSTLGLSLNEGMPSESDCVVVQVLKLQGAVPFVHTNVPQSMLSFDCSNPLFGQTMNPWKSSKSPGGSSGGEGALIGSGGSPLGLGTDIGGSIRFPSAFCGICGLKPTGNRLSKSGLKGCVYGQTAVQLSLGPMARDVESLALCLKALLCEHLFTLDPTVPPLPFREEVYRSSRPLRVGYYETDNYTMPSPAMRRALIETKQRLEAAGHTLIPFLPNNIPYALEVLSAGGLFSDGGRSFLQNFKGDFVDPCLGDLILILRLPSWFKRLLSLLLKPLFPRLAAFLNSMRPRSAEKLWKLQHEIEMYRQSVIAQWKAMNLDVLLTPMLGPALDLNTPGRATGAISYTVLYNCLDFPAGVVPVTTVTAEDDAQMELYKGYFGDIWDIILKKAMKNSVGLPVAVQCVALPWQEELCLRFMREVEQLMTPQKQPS
Put plainly: Relative rate of fatty acid amide hydrolase hydrolysis of compound compared to that of oleamide.
The molecule `CCCCC/C=C/C/C=C/CCCCCCCC(N)=O` (stereo in doubt; 22) returned a Relative rate of hydrolysis of 0.54.

`CCCCCCCCCCCCCCCCCC(N)=O` returned a Relative rate of hydrolysis of 0.69.

With `CCCCCCCC/C=C/CCCCCCOC(N)=O`, the Relative rate of hydrolysis turned out to be 0.1.

`CCCCCCCCCC/C=C\CCCCCC(N)=O`: the Relative rate of hydrolysis is 1.09.

The molecule `CCCCCCCC/C=C/CCCCCCCC(N)=O` gave a Relative rate of hydrolysis of 0.52.

The molecule `C1CCCCCCNCCCCC1` registered a Relative rate of hydrolysis of 0.74.

Take `CCCCCCCCCCCCCC/C=C\CCCC(N)=O`: the Relative rate of hydrolysis was 1.16.

On to `CCCCCCCCCCCCCC(N)=O`, for which the Relative rate of hydrolysis worked out at 0.83.

The molecule `CCCCCCCC/C=C/CCCCCCNC(N)=O` gave a Relative rate of hydrolysis below 0.001.

Molecule `CC/C=C/C/C=C/C/C=C/C/C=C/C/C=C/C/C=C/CCC(N)=O` gave a Relative rate of hydrolysis of 0.82.

As to `CCCCCCCC/C=C/CCCCCCC(C)(C)C(N)=O`, the Relative rate of hydrolysis worked out at 0.03.

The molecule `CC/C=C\CCCCCCCCCCCCCC(N)=O` gave a Relative rate of hydrolysis of 0.9.

Molecule `CCCCCCCCCCCCCCCC(N)=O` came in with a Relative rate of hydrolysis of 0.72.

Molecule `CCCCCCCCCCC/C=C\CCCCC(N)=O` had a Relative rate of hydrolysis of 0.91.

Consider `CCCCCC/C=C/CCCCCCCC(N)=O`, for which the Relative rate of hydrolysis amounted to 0.79.

For the molecule `CCCCCCCC/C=C/CCCCCCCCCCCCCC(N)=O`, the Relative rate of hydrolysis is 0.82.

On to `CCCCC/C=C\CCCCCCCCCCC(N)=O`, for which the Relative rate of hydrolysis amounted to 0.92.

`CCCCC/C=C/C/C=C/C/C=C/CCCCCCC(N)=O` had a Relative rate of hydrolysis of 1.38.

On to `CCCCC/C=C/C/C=C/C/C=C/C/C=C/CCCC(N)=O`, for which the Relative rate of hydrolysis amounted to 3.11.

For the molecule `CCCCCCCC/C=C\CCCCCCCCCC(N)=O`, the Relative rate of hydrolysis came out at 1.05.

Molecule `CC/C=C/C/C=C/C/C=C/CCCCCCCCCC(N)=O` showed a Relative rate of hydrolysis of 1.4.

As to `CCCC/C=C\CCCCCCCCCCCC(N)=O`, the Relative rate of hydrolysis worked out at 0.82.

`CCCCCCCC/C=C/CCCCCCCCCCCC(N)=O` had a Relative rate of hydrolysis of 0.83.

Regarding `CCCCC/C=C\C/C=C\C/C=C\C/C=C\CCCC(=O)NCCO`, the Relative rate of hydrolysis was 1.68.

For `CCCCCCCC/C=C/CCCCCCC(C)C(N)=O` (configuration not stated), the Relative rate of hydrolysis was determined as 0.07.

With `CCCCC/C=C/C/C=C/CCCCCCCC(N)=O` (stereo in doubt; 21), the Relative rate of hydrolysis was found to be 1.04.

In the case of `CCCC/C=C/CCCCCCCC(N)=O`, the Relative rate of hydrolysis came to 0.86.

`CC/C=C/C/C=C/C/C=C/CCCCCCCC(N)=O` had a Relative rate of hydrolysis of 1.38.

Molecule `CCCCCCCC/C=C\CCCCCCCC(N)=O` returned a Relative rate of hydrolysis of 1.

In turn, `CCCCCCCCCCC/C=C\CCCCCCC(N)=O` showed a Relative rate of hydrolysis of 1.12.

As for `CCCCC/C=C/C/C=C/CCCCCCCCCC(N)=O`, the Relative rate of hydrolysis was found to be 1.27.

Molecule `CCCCCC/C=C\CCCCCCCCCCCC(N)=O` had a Relative rate of hydrolysis of 1.03.
